The values that follow come from patent US8263610B2, “Substituted imidazolyl-5,6-dihydrobenzo[N]isoquinoline compounds” (ArQule, Inc., priority 2008, dated 2012).

The target of one experiment is T1, FGFR2(N549H) (Homo sapiens, UniProt P21802, N549H).
T1 construct: purchased Millipore 14-742
Description: fluorescent ELISA assay for inhibitors of FGFR2 kinase. In kind it is biochemical. As to conditions: 37 μM Pyk2 substrate, 12.5 μM ATP, 0.5 μM FGFR2 enzyme, 60 minutes. Here is the method: The enzymatic assays described herein are conducted according to the following procedures from commercially available reagents. In one, non limiting, example, a fluorescent ELISA assay is used to identify and characterize inhibitors of FGFR2 kinase as described herein. This heterogeneous assay utilizes a biotinylated peptide with a tyrosine motif as a substrate and an anti-phospho-tyrosine antibody to measure phosphorylation of the substrate. The reaction is initiated by adding the test compound, 37 μM Pyk2 substrate (Midwest Biotech, Cat. #MBT2383), 12.5 μM ATP (Roche, Cat. #11 140 965 001) and 0.5 μM FGFR2 enzyme (Millipore, Cat. #14-742) sequentially to a non-binding polypropylene V-well plate. All reagents are in an assay buffer consisting of: 50 mM Tris-HCL, 0.02 mg/ml BSA, 10 mM MgCl2, 0.1 mM Na3VO4, 1 mM EGTA, 75 μM ATP, 0.01% NP-40, 2 mM DTT and 10% glycerol. The reaction is incubated for 60 minutes. As the reaction proceeds, FGFR2 phosphorylates tyrosines in the peptide. The reaction mixture is then moved to a blocked streptavidin-coated Nunc Maxisorb plate (coated with 100 ng streptavidin from Pierce (Cat. #15-124) per well), allowing for the capture of the biotinylated peptide. Peptides are captured for 30 minutes at room temperature, the phosphorylation of peptides continues during this phase. The reaction is stopped by washing the streptavidin-coated plate 6 times with TBST. Phosphorylated peptide is detected by adding anti-phospho-tyrosine antibody (Cell Signaling, Cat. #9411, diluted 1:3000) to the streptavidin-coated plate. Unbound anti-phospho-tyrosine antibody is removed by washing the streptavidin-coated plate 6 times with TBST. Secondary detection is performed using alkaline phosphatase tagged goat anti-mouse antibody (Pierce, Cat. #31320, diluted 1:4000) for one hour. Unbound secondary antibody is removed by washing the streptavidin-coated plate 6 times with TBST. The fluorescent readout is initiated by adding to the streptavidin-coated plate Promega Attophos substrate (Promega, Cat. #S1000, dilution=6 mg/10 ml), which, when dephosphorylated by alkaline phosphatase, emits a fluorescent signal of 595 nm in wavelength when excited by a signal of 400 nm in wavelength. The reading of the 595 nm signal is done on the Perkin Elmer Envision system. Compounds which prevent FGFR2 from phosphorylating the peptide result in a lower fluorescent signal. The 595 nm fluorescent signal is directly proportional to the activity of FGFR2. Thus, the inhibition of FGFR2 by compounds is monitored by the decrease in the 595 nm fluorescent signal.

For a further experiment, the system named is PACA-2 cells. Description: MTS assay, inhibition of cell growth. The note with it: compound at 10 μM, 72 hours. Type of experiment: cell-based. Here is the method:
(§1) MDA-MB-231, DLD-1, Kato III NCI-H1299, PACA-2 cells, were maintained at 37° C., 5% CO2 in DMEM media supplemented with 10% fetal bovine serum, penicillin/streptomycin and fungizone (Invitrogen). Cells were seeded into 96-well tissue culture plates at 3000 per well and cultured at 37° C. for 18 hours. Test compounds were dissolved and diluted to 300× in DMSO then further diluted 1:40 in DMEM before addition to cells (1:7.5 dilution). Cells were incubated with test compounds for 72 hours followed by incubation with tetrazolium compound (3-(4,5-dimethylthiazol-2-yl)-5-(3-carboxymethoxyphenyl)-2-(4-sulfophenyl)-2H-tetrazolium, inner salt; MTS) and the electron coupling reagent, phenazine methosulfate (PMS) for 4 hours. […] The ability of compounds to inhibit cell growth in this assay is correlated with the reduction of dehydrogenase enzyme activity found in metabolically active cells. The measurement of the absorbance of the formazan was assessed using an ENVISION™ (Perkin Elmer) microplate reader at 492 nm.

Another experiment deals with Kato III cells. Briefly: MTS assay, inhibition of cell growth. In kind it is cell-based. The note with it: Homo sapiens, compound at 10 μM, 72 hours. The protocol:
as §1
In general terms: Formazan colour is commonly taken as a measure of viable cells.

The subject of a further experiment is MDA-MB-231 cells. Description: MTS assay, inhibition of cell growth. Type of experiment: cell-based. As to conditions: Homo sapiens, compound at 10 μM, 72 hours. The protocol:
as §1

In a further experiment the test system is DLD-1 cells. Briefly: MTS assay, inhibition of cell growth. In kind it is cell-based. The note with it: Homo sapiens, compound at 10 μM, 72 hours. The protocol: as §1
In another experiment the test system is NCI-H1299 cells. Description: MTS assay, inhibition of cell growth. As to conditions: Homo sapiens, compound at 10 μM, 72 hours. Type of experiment: cell-based. Here is the method: as §1

T1 sequence (P21802 22-821 N549H): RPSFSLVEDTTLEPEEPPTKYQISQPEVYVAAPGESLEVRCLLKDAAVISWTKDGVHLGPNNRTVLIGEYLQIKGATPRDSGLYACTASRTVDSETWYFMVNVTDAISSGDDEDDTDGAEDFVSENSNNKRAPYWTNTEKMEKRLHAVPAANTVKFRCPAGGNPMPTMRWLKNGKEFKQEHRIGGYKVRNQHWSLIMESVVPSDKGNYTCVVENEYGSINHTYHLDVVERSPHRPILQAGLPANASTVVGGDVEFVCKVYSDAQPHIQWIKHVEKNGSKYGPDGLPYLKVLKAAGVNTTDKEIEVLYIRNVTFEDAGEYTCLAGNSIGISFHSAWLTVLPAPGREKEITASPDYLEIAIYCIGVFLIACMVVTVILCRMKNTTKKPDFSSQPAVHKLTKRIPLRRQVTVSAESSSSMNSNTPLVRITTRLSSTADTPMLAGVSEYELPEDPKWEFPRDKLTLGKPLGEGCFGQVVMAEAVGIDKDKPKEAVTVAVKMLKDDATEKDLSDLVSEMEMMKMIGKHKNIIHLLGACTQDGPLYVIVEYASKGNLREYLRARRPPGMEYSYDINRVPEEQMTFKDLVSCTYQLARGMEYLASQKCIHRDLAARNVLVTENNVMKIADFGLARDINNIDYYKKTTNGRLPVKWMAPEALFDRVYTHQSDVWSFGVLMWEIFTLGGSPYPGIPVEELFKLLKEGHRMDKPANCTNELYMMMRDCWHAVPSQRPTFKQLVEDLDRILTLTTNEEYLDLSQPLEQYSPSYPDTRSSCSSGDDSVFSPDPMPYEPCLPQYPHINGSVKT

Usually IC50 stands for the concentration that gives 50% inhibition. High values mean weaker potency, low ones greater potency. On to `Clc1ccc(C2Cc3cnc4[nH]ncc4c3-c3ccccc32)c(Cl)c1` (stereo not drawn) [7-(2,4-dichlorophenyl)-6,7-dihydro-3H-benzo[f]pyrazolo[3,4-c]isoquinoline], for which 2510 nM corresponded to half-maximal inhibition against FGFR2(N549H) (IC50).

A word on the inhibition: it is the relative decrease from the control value, in per cent. The low end stands for a response near the control, the high end for a response far below the control. Turning to `O=C(NCCc1cccc(Cl)c1)c1cccc(NC(=O)N2CCc3c(cnc4[nH]ncc34)C2)c1` [N-(3-{[2-(3-chlorophenyl)ethyl]carbamoyl}phenyl)-3,6,8,9-tetrahydro-7H-pyrazolo[3,4-c][2,7]naphthyridine-7-carboxamide], the inhibition at 10 µM fell in the range of 75 to 100% in the experiment on PACA-2 cells; 75 to 100% in the experiment with Kato III cells; 75 to 100% with MDA-MB-231 cells; 75 to 100% in the experiment on DLD-1 cells; 25 to 49% in the experiment on NCI-H1299 cells.

With `c1nc2[nH]ncc2c2c1CCc1nc(NCC3CCCCCC3)ncc1-2` [N-(cycloheptylmethyl)-6,7-dihydro-3H-pyrazolo[4′,3′:5,6]pyrido[4,3-f]quinazolin-9-amine], the inhibition at 10 µM in the experiment on PACA-2 cells, in the experiment with Kato III cells, with MDA-MB-231 cells, with DLD-1 cells and in the experiment on NCI-H1299 cells was 75 to 100% each time.

With `O=C(NCC1CCCCC1)N1CCc2c(cnc3[nH]ncc23)C1` [N-(cyclohexylmethyl)-3,6,8,9-tetrahydro-7H-pyrazolo[3,4-c][2,7]naphthyridine-7-carboxamide], the inhibition at 10 µM in the experiment on PACA-2 cells, with Kato III cells, in the experiment with MDA-MB-231 cells, in the experiment on DLD-1 cells and in the experiment with NCI-H1299 cells was 75 to 100% in each case.

Turning to `FC(F)(F)c1cccc(CNc2ncc3c(n2)CCc2cnc4[nH]ncc4c2-3)c1` [N-[3-(trifluoromethyl)benzyl]-6,7-dihydro-3H-pyrazolo[4′,3′:5,6]pyrido[4,3-f]quinazolin-9-amine], the inhibition at 10 µM in the experiment with PACA-2 cells, in the experiment on Kato III cells, in the experiment on MDA-MB-231 cells, with DLD-1 cells and with NCI-H1299 cells was 75 to 100% each time.

Regarding `CN(C)c1ccc(NC(=O)N2CCc3c(cnc4[nH]ncc34)C2)cc1` [N-[4-(dimethylamino)phenyl]-3,6,8,9-tetrahydro-7H-pyrazolo[3,4-c][2,7]naphthyridine-7-carboxamide], the inhibition at 10 µM in the experiment with PACA-2 cells, in the experiment with Kato III cells, in the experiment with MDA-MB-231 cells, in the experiment with DLD-1 cells and in the experiment with NCI-H1299 cells was 75 to 100% in each case.

Take `O=C(Nc1ccccc1)N1CCc2c(cnc3[nH]nc(-c4cccc(C(F)(F)F)c4)c23)C1` [N-phenyl-1-[3-(trifluoromethyl)phenyl]-3,6,8,9-tetrahydro-7H-pyrazolo[3,4-c][2,7]naphthyridine-7-carboxamide]: the inhibition at 10 µM in the experiment on PACA-2 cells, in the experiment on Kato III cells, with MDA-MB-231 cells, in the experiment with DLD-1 cells and with NCI-H1299 cells was 75 to 100% each time.

On to `CC(C)(C)NC1CCc2c(cnc3[nH]ncc23)C1` (stereo not drawn) [N-tert-butyl-6,7,8,9-tetrahydro-3H-pyrazolo[3,4-c]isoquinolin-7-amine], for which the inhibition at 10 µM in the experiment with PACA-2 cells, with Kato III cells, in the experiment with MDA-MB-231 cells, in the experiment on DLD-1 cells and with NCI-H1299 cells was 75 to 100% throughout.

For the molecule `O=C(NCCN1CCOCC1)c1cccc(NC(=O)N2CCc3c(cnc4[nH]ncc34)C2)c1` [N-{3-[(2-morpholin-4-ylethyl)carbamoyl]phenyl}-3,6,8,9-tetrahydro-7H-pyrazolo[3,4-c][2,7]napthyridine-7-carboxamide], the inhibition at 10 µM with PACA-2 cells, in the experiment on Kato III cells, with MDA-MB-231 cells, in the experiment on DLD-1 cells and with NCI-H1299 cells was 75 to 100% each time.

Turning to `Fc1ccc(C2Cc3cnc4[nH]ncc4c3-c3ccccc32)cc1` (stereo not drawn) [drawing 558, 7-(4-fluorophenyl)-6,7-dihydro-3H-benzo[f]pyrazolo[3,4-c]isoquinoline], the inhibition at 10 µM in the experiment with PACA-2 cells lay in the range of 75 to 100%; in the experiment with Kato III cells, 50 to 74%; with MDA-MB-231 cells it was 75 to 100%; with DLD-1 cells it was 75 to 100%; in the experiment with NCI-H1299 cells, 25 to 49%.

`O=S(=O)(NC1CCc2c(cnc3[nH]ncc23)C1)c1ccccc1` (stereo not drawn) [drawing 563, N-(6,7,8,9-tetrahydro-3H-pyrazolo[3,4-c]isoquinolin-7-yl)benzenesulfonamide]: the inhibition at 10 µM was 75 to 100% in the experiment with PACA-2 cells; 75 to 100% in the experiment on Kato III cells; 75 to 100% in the experiment on MDA-MB-231 cells; 75 to 100% in the experiment with DLD-1 cells; 25 to 49% in the experiment on NCI-H1299 cells.

Turning to `CC(C)(C)OC(=O)N1CCc2c(cnc3[nH]ncc23)C1` [drawing 579, tert-butyl 3,6,8,9-tetrahydro-7H-pyrazolo[3,4-c][2,7]naphthyridine-7-carboxylate], the inhibition at 10 µM in the experiment with PACA-2 cells, in the experiment with Kato III cells, in the experiment with MDA-MB-231 cells, in the experiment on DLD-1 cells and in the experiment with NCI-H1299 cells was 75 to 100% throughout.

As for `Cc1nc(-c2cccc(NC(=O)N3CCc4c(cnc5[nH]nc(Br)c45)C3)c2)cs1` [drawing 580, 1-bromo-N-[3-(2-methyl-1,3-thiazol-4-yl)phenyl]-3,6,8,9-tetrahydro-7H-pyrazolo[3,4-c][2,7]naphthyridine-7-carboxamide], the inhibition at 10 µM in the experiment on PACA-2 cells was 25 to 49%; with Kato III cells it was 75 to 100%; in the experiment on MDA-MB-231 cells, below 24%; in the experiment with DLD-1 cells it was 75 to 100%; with NCI-H1299 cells, 50 to 74%.

With `O=C(c1ccccc1)c1c[nH]c2ncnc(N3CCc4c(cnc5[nH]nc(Br)c45)C3)c12` [drawing 582], the inhibition at 10 µM in the experiment on PACA-2 cells was in the range of 75 to 100%; in the experiment on Kato III cells it was 75 to 100%; with MDA-MB-231 cells, 50 to 74%; in the experiment on DLD-1 cells, 50 to 74%; in the experiment with NCI-H1299 cells it was 75 to 100%.

On to `CC(C)(C)OC(=O)N1CCc2c(cnc3[nH]nc(Br)c23)C1` [drawing 588, tert-butyl 1-bromo-3,6,8,9-tetrahydro-7H-pyrazolo[3,4-c][2,7]naphthyridine--7-carboxylate], for which the inhibition at 10 µM in the experiment with PACA-2 cells, in the experiment on Kato III cells, with MDA-MB-231 cells, with DLD-1 cells and in the experiment on NCI-H1299 cells was 75 to 100% in each case.

Take `CCOC(=O)CNC(=O)N1CCc2c(cnc3[nH]ncc23)C1` [ethyl N-(3,6,8,9-tetrahydro-7H-pyrazolo[3,4-c][2,7]naphthyridin-7-ylcarbonyl)glycinate]: the inhibition at 10 µM in the experiment with PACA-2 cells, in the experiment with Kato III cells, in the experiment on MDA-MB-231 cells, with DLD-1 cells and in the experiment with NCI-H1299 cells was 75 to 100% in each case.

On to `CC(C)(C)OC(=O)NCc1cccc(-c2n[nH]c3ncc4c(c23)CCN(C(=O)OC(C)(C)C)C4)c1` [tert-butyl 1-(3-{[(tert-butoxycarbonyl)amino]methyl}phenyl)-3,6,8,9-tetrahydro-7H-pyrazolo[3,4-c][2,7]naphthyridine--7-carboxylate], for which the inhibition at 10 µM with PACA-2 cells fell in the range of 75 to 100%; with Kato III cells, 75 to 100%; with MDA-MB-231 cells it was 75 to 100%; in the experiment with DLD-1 cells, 75 to 100%; in the experiment on NCI-H1299 cells, 50 to 74%.
